Data reported in the NIST ThermoML archive (doi:10.1007/s10765-009-0602-6).
“And” between values parts separate entries of the source, which are not always exact repeats. Identical values can stand only once. ± gives the expanded uncertainty stated by the source.

Assay: molar heat capacity at constant volume; xn = mol fraction of the nth substance listed
Settings: x1 = 0.2607

N [ammonia] + O
Settings | molar heat capacity at constant volume
601.54 K, Fluid (supercritical or subcritical phases), Mass density=301.94 kg/m3, isochoric heat capacity | 93.57 ± 3.7 J/K/mol
601.55 K, Fluid (supercritical or subcritical phases), Mass density=291.16 kg/m3, isochoric heat capacity | 90.62 ± 3.6 J/K/mol
601.56 K, Fluid (supercritical or subcritical phases), Mass density=188.05 kg/m3, isochoric heat capacity | 61.55 ± 2.9 J/K/mol
601.62 K, Fluid (supercritical or subcritical phases), Mass density=285.71 kg/m3, isochoric heat capacity | 88.9 ± 3.7 J/K/mol
601.63 K, Fluid (supercritical or subcritical phases), Mass density=299.79 kg/m3, isochoric heat capacity | 98.44 ± 3.9 J/K/mol
601.66 K, Fluid (supercritical or subcritical phases), Mass density=294.44 kg/m3, isochoric heat capacity | 99.98 ± 4 J/K/mol
601.71 K, Fluid (supercritical or subcritical phases), Mass density=285.71 kg/m3, isochoric heat capacity | 87.96 ± 3.6 J/K/mol
601.71 K, Fluid (supercritical or subcritical phases), Mass density=299.79 kg/m3, isochoric heat capacity | 95.13 ± 3.8 J/K/mol
601.75 K, Fluid (supercritical or subcritical phases), Mass density=188.05 kg/m3, isochoric heat capacity | 64.8 ± 2.6 J/K/mol
601.75 K, Fluid (supercritical or subcritical phases), Mass density=195.99 kg/m3, isochoric heat capacity | 103.89 ± 4.7 J/K/mol
601.75 K, Liquid, Isochoric heat capacity | 103.89 ± 4.2 J/K/mol
601.79 K, Fluid (supercritical or subcritical phases), Mass density=195.99 kg/m3, isochoric heat capacity | 94.8 ± 4.2 J/K/mol
601.82 K, Fluid (supercritical or subcritical phases), Mass density=294.44 kg/m3, isochoric heat capacity | 98.74 ± 4 J/K/mol
601.88 K, Fluid (supercritical or subcritical phases), Mass density=376.89 kg/m3, isochoric heat capacity | 79.03 ± 3.2 J/K/mol
601.89 K, Fluid (supercritical or subcritical phases), Mass density=195.99 kg/m3, isochoric heat capacity | 87.6 ± 4.1 J/K/mol
601.97 K, Fluid (supercritical or subcritical phases), Mass density=297.6 kg/m3, isochoric heat capacity | 100.3 ± 4 J/K/mol
601.97 K, Fluid (supercritical or subcritical phases), Mass density=376.89 kg/m3, isochoric heat capacity | 76.68 ± 3.1 J/K/mol
601.98 K, Fluid (supercritical or subcritical phases), Mass density=195.99 kg/m3, isochoric heat capacity | 77.82 ± 3.2 J/K/mol
602.05 K, Fluid (supercritical or subcritical phases), Mass density=271.09 kg/m3, isochoric heat capacity | 106.73 ± 4.3 J/K/mol
602.05 K, Fluid (supercritical or subcritical phases), Mass density=376.89 kg/m3, isochoric heat capacity | 80.09 ± 3.2 J/K/mol
602.05 K, Liquid, Isochoric heat capacity | 106.73 ± 4.3 J/K/mol
602.08 K, Fluid (supercritical or subcritical phases), Mass density=271.09 kg/m3, isochoric heat capacity | 104.24 ± 4.2 J/K/mol
602.09 K, Fluid (supercritical or subcritical phases), Mass density=271.09 kg/m3, isochoric heat capacity | 100.44 ± 4.1 J/K/mol
602.12 K, Fluid (supercritical or subcritical phases), Mass density=271.09 kg/m3, isochoric heat capacity | 96.3 ± 3.9 J/K/mol
602.13 K, Fluid (supercritical or subcritical phases), Mass density=307.35 kg/m3, isochoric heat capacity | 96.93 ± 3.9 J/K/mol
602.14 K, Fluid (supercritical or subcritical phases), Mass density=312.91 kg/m3, isochoric heat capacity | 83.15 ± 3.3 J/K/mol
602.22 K, Fluid (supercritical or subcritical phases), Mass density=312.91 kg/m3, isochoric heat capacity | 82.81 ± 3.3 J/K/mol
602.23 K, Fluid (supercritical or subcritical phases), Mass density=307.35 kg/m3, isochoric heat capacity | 92.38 ± 3.7 J/K/mol
602.24 K, Fluid (supercritical or subcritical phases), Mass density=271.09 kg/m3, isochoric heat capacity | 93.92 ± 3.8 J/K/mol
602.26 K, Fluid (supercritical or subcritical phases), Mass density=205.58 kg/m3, isochoric heat capacity | 105.31 ± 4.3 J/K/mol
602.26 K, Liquid, Isochoric heat capacity | 105.31 ± 4.2 J/K/mol
602.3 K, Fluid (supercritical or subcritical phases), Mass density=312.91 kg/m3, isochoric heat capacity | 81.1 ± 3.2 J/K/mol
602.31 K, Fluid (supercritical or subcritical phases), Mass density=205.58 kg/m3, isochoric heat capacity | 100.51 ± 4.1 J/K/mol
602.38 K, Fluid (supercritical or subcritical phases), Mass density=271.09 kg/m3, isochoric heat capacity | 89.02 ± 3.7 J/K/mol
602.39 K, Fluid (supercritical or subcritical phases), Mass density=205.58 kg/m3, isochoric heat capacity | 86.66 ± 3.6 J/K/mol
602.39 K, Fluid (supercritical or subcritical phases), Mass density=312.91 kg/m3, isochoric heat capacity | 81.72 ± 3.3 J/K/mol
602.4 K, Fluid (supercritical or subcritical phases), Mass density=307.35 kg/m3, isochoric heat capacity | 94.4 ± 3.8 J/K/mol
602.45 K, Liquid, Isochoric heat capacity | 105.13 ± 4.2 J/K/mol
602.48 K, Fluid (supercritical or subcritical phases), Mass density=205.58 kg/m3, isochoric heat capacity | 75.47 ± 3.1 J/K/mol
602.48 K, Fluid (supercritical or subcritical phases), Mass density=243.98 kg/m3, isochoric heat capacity | 100.07 ± 4 J/K/mol
602.48 K, Fluid (supercritical or subcritical phases), Mass density=260.02 kg/m3, isochoric heat capacity | 100.07 ± 4 J/K/mol
602.48 K, Fluid (supercritical or subcritical phases), Mass density=307.35 kg/m3, isochoric heat capacity | 89.36 ± 3.6 J/K/mol
602.48 K, Fluid (supercritical or subcritical phases), Mass density=312.91 kg/m3, isochoric heat capacity | 84.69 ± 3.4 J/K/mol
602.48 K, Fluid (supercritical or subcritical phases), Mass density=342.18 kg/m3, isochoric heat capacity | 86.56 ± 3.5 J/K/mol
602.48 K, Fluid (supercritical or subcritical phases), Mass density=376.89 kg/m3, isochoric heat capacity | 81.21 ± 3.2 J/K/mol
602.48 K, Fluid (supercritical or subcritical phases), Mass density=456.58 kg/m3, isochoric heat capacity | 66.2 ± 2.6 J/K/mol
602.51 K, Fluid (supercritical or subcritical phases), Mass density=271.09 kg/m3, isochoric heat capacity | 86.04 ± 3.5 J/K/mol
602.56 K, Fluid (supercritical or subcritical phases), Mass density=205.58 kg/m3, isochoric heat capacity | 77.07 ± 3.2 J/K/mol
602.56 K, Fluid (supercritical or subcritical phases), Mass density=243.98 kg/m3, isochoric heat capacity | 96.22 ± 3.9 J/K/mol
602.56 K, Fluid (supercritical or subcritical phases), Mass density=260.02 kg/m3, isochoric heat capacity | 96.22 ± 3.9 J/K/mol
602.56 K, Fluid (supercritical or subcritical phases), Mass density=307.35 kg/m3, isochoric heat capacity | 92.18 ± 3.7 J/K/mol
602.56 K, Fluid (supercritical or subcritical phases), Mass density=342.18 kg/m3, isochoric heat capacity | 87.35 ± 3.5 J/K/mol
602.62 K, Fluid (supercritical or subcritical phases), Mass density=195.99 kg/m3, isochoric heat capacity | 72.88 ± 2.9 J/K/mol
602.65 K, Fluid (supercritical or subcritical phases), Mass density=243.98 kg/m3, isochoric heat capacity | 98.1 ± 3.9 J/K/mol
602.65 K, Fluid (supercritical or subcritical phases), Mass density=260.02 kg/m3, isochoric heat capacity | 98.1 ± 3.9 J/K/mol
602.65 K, Fluid (supercritical or subcritical phases), Mass density=376.89 kg/m3, isochoric heat capacity | 81.09 ± 3.2 J/K/mol
602.65 K, Fluid (supercritical or subcritical phases), Mass density=456.58 kg/m3, isochoric heat capacity | 68.55 ± 2.7 J/K/mol
602.74 K, Fluid (supercritical or subcritical phases), Mass density=205.58 kg/m3, isochoric heat capacity | 73.93 ± 3 J/K/mol
602.74 K, Fluid (supercritical or subcritical phases), Mass density=214.83 kg/m3, isochoric heat capacity | 106.91 ± 4.4 J/K/mol
602.74 K, Fluid (supercritical or subcritical phases), Mass density=243.98 kg/m3, isochoric heat capacity | 94.92 ± 3.8 J/K/mol
602.74 K, Fluid (supercritical or subcritical phases), Mass density=260.02 kg/m3, isochoric heat capacity | 94.92 ± 3.8 J/K/mol
602.74 K, Fluid (supercritical or subcritical phases), Mass density=342.18 kg/m3, isochoric heat capacity | 87.43 ± 3.5 J/K/mol
602.74 K, Fluid (supercritical or subcritical phases), Mass density=376.89 kg/m3, isochoric heat capacity | 79.29 ± 3.2 J/K/mol
602.74 K, Liquid, Isochoric heat capacity | 106.91 ± 4.3 J/K/mol
602.82 K, Fluid (supercritical or subcritical phases), Mass density=214.83 kg/m3, isochoric heat capacity | 102.73 ± 4.2 J/K/mol
602.82 K, Fluid (supercritical or subcritical phases), Mass density=456.58 kg/m3, isochoric heat capacity | 67.55 ± 2.7 J/K/mol
602.85 K, Fluid (supercritical or subcritical phases), Mass density=218.92 kg/m3, isochoric heat capacity | 108.5 ± 4.5 J/K/mol
602.85 K, Liquid, Isochoric heat capacity | 108.5 ± 4.3 J/K/mol
602.91 K, Fluid (supercritical or subcritical phases), Mass density=214.83 kg/m3, isochoric heat capacity | 94.28 ± 4.2 J/K/mol
602.91 K, Fluid (supercritical or subcritical phases), Mass density=218.92 kg/m3, isochoric heat capacity | 99.09 ± 4 J/K/mol
602.91 K, Fluid (supercritical or subcritical phases), Mass density=243.98 kg/m3, isochoric heat capacity | 106.2 ± 4.3 J/K/mol
602.91 K, Fluid (supercritical or subcritical phases), Mass density=311.19 kg/m3, isochoric heat capacity | 90.5 ± 3.6 J/K/mol
602.91 K, Fluid (supercritical or subcritical phases), Mass density=342.18 kg/m3, isochoric heat capacity | 82.9 ± 3.3 J/K/mol
602.91 K, Liquid, Isochoric heat capacity | 106.2 ± 4.2 J/K/mol
602.96 K, Fluid (supercritical or subcritical phases), Mass density=224.53 kg/m3, isochoric heat capacity | 111.03 ± 4.5 J/K/mol
602.96 K, Fluid (supercritical or subcritical phases), Mass density=230.31 kg/m3, isochoric heat capacity | 111.35 ± 4.7 J/K/mol
602.96 K, Liquid, Isochoric heat capacity | 111.35 ± 4.5 J/K/mol and 111.03 ± 4.4 J/K/mol
602.97 K, Fluid (supercritical or subcritical phases), Mass density=227.54 kg/m3, isochoric heat capacity | 112.45 ± 4.7 J/K/mol
602.97 K, Liquid, Isochoric heat capacity | 112.45 ± 4.5 J/K/mol
602.99 K, Fluid (supercritical or subcritical phases), Mass density=214.83 kg/m3, isochoric heat capacity | 91.33 ± 3.7 J/K/mol
602.99 K, Fluid (supercritical or subcritical phases), Mass density=224.53 kg/m3, isochoric heat capacity | 109.57 ± 4.4 J/K/mol
